Test results reported in patent US8361987B2, “DNA vaccines encoding heat shock proteins” (priority 2002, dated 2013).

Columns and labels:
adjuvant arthritis (AA) [1] = assay: Adoptive transfer of Con A-activated splenocytes from peptide-vaccinated rats, then AA induction in recipients; assay type: in vivo, Lewis rats; settings: 5×10^7 Con A-activated splenocytes of peptide-vaccinated donors iv; AA induced three days later
Experimental: Spleen cells were prepared from peptide-vaccinated rats 26 days after the induction of AA. The splenocytes (10^7 cells per ml) were activated with 2.5 μg/ml of Con A for 48 hr at 37° C. in a humidified atmosphere of 5% CO2. The cells were washed with sterile PBS and injected iv into naïve rats (5×10^7 cells per rat). Three days after the transfer of the splenocytes, AA was induced.
To learn whether the protection triggered by Hu3-vaccination could be adoptively transferred by activated T-cells, splenocytes prepared from Hu3 vaccinated rats were stimulated in vitro for 2 days with the T-cell mitogen Con A, washed, and injected iv (5×10^7 cells per rat) into naïve rats. Only the recipients of cells taken from Hu3-vaccinated rats were protected against the subsequent induction of AA (FIGS. 4A and 4B). […] Thus, inhibition of AA by vaccination with Hu3 could be adoptively transferred by activated T-cells.

lymph node cells (LNC) = assay: T-cell proliferation ([methyl-3H]-thymidine incorporation, stimulation index) of cells from vaccinated rats; assay type: cell-based, Lewis rats; settings: for T-cell response to the immunizing peptide: LNC of peptide-vaccinated rats after AA induction
Experimental: Popliteal and inguinal lymph node cells (LNC) taken 26 days after the induction of AA were cultured in quadruplicates in 200 μl round bottom microtiter wells (Costar Corp., Cambridge, USA) at 2×10^5 cells per well with or without antigen. The T-cell mitogen Concanavalin A (Con A) was used as a positive control for T-cell proliferation. Cultures were incubated for 96 hrs at 37° C. in a humidified atmosphere of 5% CO2. T-cell responses were detected by the incorporation of [methyl-^3H]-thymidine (Amersham, Buckinghamshire, UK; 1 μCi/well), which was added to the wells for the last 18 hours. The stimulation index (SI) was computed as the ratio of the mean c.p.m. of antigen- or mitogen-containing wells to control wells cultured with medium alone.

adjuvant arthritis (AA) [2] = assay: Adjuvant arthritis (AA) induction and assessment after DNA or peptide vaccination; assay type: in vivo, Lewis rats
Experimental: Plasmid DNA was prepared in large scale and injected after pretreatment with cardiotoxin (Sigma, Rehovot, Israel). Briefly, rats were vaccinated in the quadriceps three times (on days −40, −26 −12 relative to AA induction) with 150 μg of pcDNA3, pI, pII, pIII, pIV or pV. Endotoxin levels were checked by Limulus Amoebocyte Lysate and found always to be under acceptable levels for in vivo use (less than 0.02 EU/μg DNA). AA was induced 12 days after the last injection of DNA. The empty vector pcDNA3 was used as a DNA vaccination control.
AA was induced using 1 mg per rat of heat-killed Mt strain H37Ra (Difco). The day of AA induction was designated as day 0, and disease severity was assessed by direct observation of all 4 limbs in each animal. A relative score between 0 and 4 was assigned to each limb, based on the degree of joint inflammation, redness and deformity; thus the maximum possible score for an individual animal was 16. Arthritis was also quantified by measuring hind limb diameter with a caliper. Measurements were taken on the day of AA induction and 26 days later, and they are presented as the mean±SEM of the difference between the two values. The person who scored the disease was blinded to the identity of the groups. […]

[3] = system: IFNγ, IL-10 and TGFβ1 secretion by LNC; assay: Cytokine assays (ELISA of culture supernatants after 72 hrs antigen stimulation); assay type: cell-based, Lewis rats
Description: Supernatants were collected after 72 hrs of stimulation with each of the antigens tested. Rat IL-10 and IFNγ were quantitated in culture supernatants by enzyme-linked immunosorbent assay (ELISA) using Pharmingen's OPTEIA kit (Pharmingen, San Diego, USA). Rat TGFβ1 was quantified using the TGFβ1 Emax® ImmunoAssay System (Promega, Madison, USA) according to the manufacturer's instructions. Cytokine levels in supernatants are expressed as pg/ml based on calibration curves constructed using recombinant cytokines as standards. The lower limits of detection for the experiments described in this paper were 15 pg/ml for TGFβ1, IL-10 and IFNγ.

[4] = LNC day 26 after AA induction, 72 hr
[5] = LNC of peptide-vaccinated rats, day 26 after AA induction

Sequence | protection of recipients against subsequent induction of AA (adjuvant arthritis (AA) [1]) | T-cell response to the immunizing peptide (lymph node cells (LNC)) | T-cell response to the immunizing peptide (lymph node cells (LNC); listed as HU12) | ankle swelling (adjuvant arthritis (AA) [2]; peptide vaccination 100 μg in IFA day −7, day 26 after AA induction, vs 32.2±3.5 in PBS/IFA, p=0.02) | AA disease severity after peptide vaccination (adjuvant arthritis (AA) [2]; single i.p. dose of 100 μg peptide in IFA on day −7, compared to non-immunized rats or PBS, Hu12 or Mt3) | T-cell proliferative responses to both self- and mycobacterial antigens (lymph node cells (LNC); LNC day 26 after AA induction) | proliferative response to HSP60 (lymph node cells (LNC); LNC day 26 after AA induction) | proliferative response to control peptide Hu12 (lymph node cells (LNC); LNC day 26 after AA induction) | proliferative response to Hu3 (lymph node cells (LNC); LNC day 26 after AA induction, stimulated in vitro with Hu3) | T-cell proliferative responses to mycobacterial antigens (PPD, HSP65, Mt176-190) (lymph node cells (LNC); LNC day 26 after AA induction, relative to controls) | IFNγ secretion upon stimulation with mycobacterial antigens (PPD, HSP65, Mt176-190) [3, 4] | IL-10 secretion upon stimulation with mycobacterial antigens (PPD, HSP65, Mt176-190) [3, 4] | TGFβ1 secretion upon stimulation with mycobacterial antigens (PPD, HSP65, Mt176-190) [3, 4] | secretion of IFNγ, stimulated with Hu3 ([3]; LNC day 26 after AA induction, relative to respective controls (FIG. 12B)) | cytokine response to whole HSP60 [3, 5] | cytokines secreted in response to Hu3 [3, 5]
AYDEEARRGLERGLNALADA [Mt3, mycobacterial HSP65 peptide, counterpart of Hu3, reference compound] | No protection | significant and specific T-cell responses | – | – | – | – | – | – | – | – | – | – | – | – | – | –
EEIAQVATISANGDKEIGNI [Hu12, human HSP60 peptide 166-185, control peptide, reference compound] | – | significant and specific T-cell responses | proliferated | – | – | – | – | – | – | – | – | – | – | – | – | –
KFGADARALMLQGVDLLADA (listed as Homo sapiens) [Hu3] | protected | significant and specific T-cell responses | – | 14.2±4.7 | significantly decreased disease | up-regulation | induction of a specific response | no responses | recognized | up-regulated | reduction | increase | increase | increased | predominantly TFGβ1 | secreted IFNγ, IL-10 and TGFβ1
